# From ChEMBL document CHEMBL5291721, “A preclinical secondary pharmacology resource illuminates target-adverse drug reaction associations of marketed drugs” (Nat Commun, 2023)
# Tests used:
# [1] = target: T1, Alpha-2A adrenergic receptor (Homo sapiens, UniProt P08913); format: functional, cell-based
# T1 sequence (P08913 whole entry): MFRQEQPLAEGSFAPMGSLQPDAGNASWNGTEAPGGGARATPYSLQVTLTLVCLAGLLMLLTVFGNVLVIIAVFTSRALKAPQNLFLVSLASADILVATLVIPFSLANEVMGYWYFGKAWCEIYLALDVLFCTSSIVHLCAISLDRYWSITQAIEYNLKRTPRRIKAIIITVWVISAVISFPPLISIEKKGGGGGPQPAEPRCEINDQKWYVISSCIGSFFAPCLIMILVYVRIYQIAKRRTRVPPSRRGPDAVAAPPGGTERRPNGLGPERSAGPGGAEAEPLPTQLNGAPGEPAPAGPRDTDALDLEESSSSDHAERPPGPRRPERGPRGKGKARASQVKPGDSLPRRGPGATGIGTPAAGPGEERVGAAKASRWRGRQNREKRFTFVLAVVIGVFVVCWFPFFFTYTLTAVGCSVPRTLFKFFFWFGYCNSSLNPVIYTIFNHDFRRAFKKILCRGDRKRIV
# [2] = target: Motilin receptor (Homo sapiens, UniProt O43193)
# Chain of Motilin receptor (O43193 whole entry): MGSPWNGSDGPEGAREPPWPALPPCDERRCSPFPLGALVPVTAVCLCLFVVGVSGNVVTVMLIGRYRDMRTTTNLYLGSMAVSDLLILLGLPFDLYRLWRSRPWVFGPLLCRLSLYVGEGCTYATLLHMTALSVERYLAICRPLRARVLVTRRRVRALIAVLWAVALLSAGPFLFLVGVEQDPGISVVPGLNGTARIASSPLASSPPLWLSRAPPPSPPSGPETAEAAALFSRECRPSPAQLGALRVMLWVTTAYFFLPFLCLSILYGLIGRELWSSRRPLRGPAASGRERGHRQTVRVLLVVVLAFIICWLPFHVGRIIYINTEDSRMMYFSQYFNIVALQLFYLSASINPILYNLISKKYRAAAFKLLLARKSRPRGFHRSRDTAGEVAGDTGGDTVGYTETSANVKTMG
# [3] = target: 3',5'-cyclic-AMP phosphodiesterase 4D (Homo sapiens, UniProt Q08499); format: functional
# Chain of 3',5'-cyclic-AMP phosphodiesterase 4D (Q08499 whole entry): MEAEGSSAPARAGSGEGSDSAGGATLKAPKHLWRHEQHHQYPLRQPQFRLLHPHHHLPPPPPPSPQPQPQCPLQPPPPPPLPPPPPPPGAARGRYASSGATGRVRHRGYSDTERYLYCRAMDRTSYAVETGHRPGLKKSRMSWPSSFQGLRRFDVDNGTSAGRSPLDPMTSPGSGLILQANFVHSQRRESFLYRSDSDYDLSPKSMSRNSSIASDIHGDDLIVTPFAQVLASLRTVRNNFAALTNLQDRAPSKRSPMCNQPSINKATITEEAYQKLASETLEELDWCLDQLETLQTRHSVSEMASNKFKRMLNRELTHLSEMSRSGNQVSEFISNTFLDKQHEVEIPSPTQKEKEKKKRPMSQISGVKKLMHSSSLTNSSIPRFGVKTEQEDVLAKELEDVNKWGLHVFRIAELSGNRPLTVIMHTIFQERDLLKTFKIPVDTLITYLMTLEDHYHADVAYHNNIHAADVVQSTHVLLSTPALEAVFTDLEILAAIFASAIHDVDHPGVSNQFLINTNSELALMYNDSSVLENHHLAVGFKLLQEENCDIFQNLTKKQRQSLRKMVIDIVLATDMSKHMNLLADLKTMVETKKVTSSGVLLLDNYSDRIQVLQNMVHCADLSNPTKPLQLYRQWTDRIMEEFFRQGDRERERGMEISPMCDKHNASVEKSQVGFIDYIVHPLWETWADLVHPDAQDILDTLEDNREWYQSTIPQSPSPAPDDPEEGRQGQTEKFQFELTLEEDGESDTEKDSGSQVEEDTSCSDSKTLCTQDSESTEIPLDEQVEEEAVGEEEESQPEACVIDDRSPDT
# [4] = target: T1, Alpha-2A adrenergic receptor; format: functional, cell-based; remark: listed apart in the source
# [5] = target: Kappa-type opioid receptor (Homo sapiens, UniProt P41145)
# Chain of Kappa-type opioid receptor (P41145 whole entry): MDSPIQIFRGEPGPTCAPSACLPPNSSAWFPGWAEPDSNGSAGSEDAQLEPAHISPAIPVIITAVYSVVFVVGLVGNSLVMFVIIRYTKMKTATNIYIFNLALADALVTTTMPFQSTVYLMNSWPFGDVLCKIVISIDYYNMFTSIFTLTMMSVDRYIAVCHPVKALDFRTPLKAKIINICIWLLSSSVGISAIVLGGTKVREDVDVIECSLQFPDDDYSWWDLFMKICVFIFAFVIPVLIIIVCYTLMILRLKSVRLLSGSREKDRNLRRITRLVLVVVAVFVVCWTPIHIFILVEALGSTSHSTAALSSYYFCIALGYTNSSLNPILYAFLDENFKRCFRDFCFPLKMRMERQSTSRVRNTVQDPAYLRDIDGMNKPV
# [6] = target: Gamma-aminobutyric acid receptor subunit alpha-1 (Rattus norvegicus, UniProt P62813); format: functional
# Chain of Gamma-aminobutyric acid receptor subunit alpha-1 (P62813 whole entry): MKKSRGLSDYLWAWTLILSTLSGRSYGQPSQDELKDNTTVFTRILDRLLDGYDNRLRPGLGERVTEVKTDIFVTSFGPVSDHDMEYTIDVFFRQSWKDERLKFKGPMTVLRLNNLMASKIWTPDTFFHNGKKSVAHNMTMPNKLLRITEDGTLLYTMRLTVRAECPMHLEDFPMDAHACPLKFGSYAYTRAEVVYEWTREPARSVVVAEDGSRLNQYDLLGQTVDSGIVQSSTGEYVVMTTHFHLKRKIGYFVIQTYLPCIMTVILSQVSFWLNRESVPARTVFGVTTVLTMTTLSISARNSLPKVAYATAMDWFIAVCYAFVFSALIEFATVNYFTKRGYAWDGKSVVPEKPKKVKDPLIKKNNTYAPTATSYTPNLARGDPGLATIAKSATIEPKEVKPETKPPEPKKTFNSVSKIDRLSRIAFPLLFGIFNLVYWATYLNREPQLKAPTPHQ
# [7] = target: Sodium-dependent dopamine transporter (Homo sapiens, UniProt Q01959)
# Chain of Sodium-dependent dopamine transporter (Q01959 whole entry): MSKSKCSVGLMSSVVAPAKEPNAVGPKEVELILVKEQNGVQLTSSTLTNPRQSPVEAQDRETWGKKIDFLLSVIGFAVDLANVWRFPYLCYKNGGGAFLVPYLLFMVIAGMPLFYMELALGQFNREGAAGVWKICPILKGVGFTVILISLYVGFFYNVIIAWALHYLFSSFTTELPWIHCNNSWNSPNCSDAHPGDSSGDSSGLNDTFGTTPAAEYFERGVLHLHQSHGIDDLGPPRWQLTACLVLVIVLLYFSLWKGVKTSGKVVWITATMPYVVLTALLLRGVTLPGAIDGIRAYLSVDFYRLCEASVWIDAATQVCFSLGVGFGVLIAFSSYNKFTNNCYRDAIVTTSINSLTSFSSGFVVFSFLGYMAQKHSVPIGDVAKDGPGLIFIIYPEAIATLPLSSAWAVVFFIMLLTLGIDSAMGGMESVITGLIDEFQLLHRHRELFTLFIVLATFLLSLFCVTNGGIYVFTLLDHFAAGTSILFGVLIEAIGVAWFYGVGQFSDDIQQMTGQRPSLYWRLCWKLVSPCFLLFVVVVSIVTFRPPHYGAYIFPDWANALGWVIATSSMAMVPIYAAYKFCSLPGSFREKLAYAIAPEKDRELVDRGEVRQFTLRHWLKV
# [8] = target: T2, 5-hydroxytryptamine receptor 1A (Homo sapiens, UniProt P08908); format: functional, cell-based
# T2 sequence (P08908 whole entry): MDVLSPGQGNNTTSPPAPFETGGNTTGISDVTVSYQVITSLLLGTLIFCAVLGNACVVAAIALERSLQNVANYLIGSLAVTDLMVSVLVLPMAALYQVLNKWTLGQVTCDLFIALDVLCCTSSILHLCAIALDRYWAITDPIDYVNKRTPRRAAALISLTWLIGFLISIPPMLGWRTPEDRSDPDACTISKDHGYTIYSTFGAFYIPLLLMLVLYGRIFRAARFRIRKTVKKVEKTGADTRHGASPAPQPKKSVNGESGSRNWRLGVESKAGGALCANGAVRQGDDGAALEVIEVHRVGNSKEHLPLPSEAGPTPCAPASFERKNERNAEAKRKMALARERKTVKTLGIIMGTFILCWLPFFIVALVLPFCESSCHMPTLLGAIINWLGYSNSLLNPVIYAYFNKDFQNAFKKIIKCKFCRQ
# [9] = target: T3, Muscarinic acetylcholine receptor M1 (Homo sapiens, UniProt P11229); format: functional
# T3 sequence (P11229 whole entry): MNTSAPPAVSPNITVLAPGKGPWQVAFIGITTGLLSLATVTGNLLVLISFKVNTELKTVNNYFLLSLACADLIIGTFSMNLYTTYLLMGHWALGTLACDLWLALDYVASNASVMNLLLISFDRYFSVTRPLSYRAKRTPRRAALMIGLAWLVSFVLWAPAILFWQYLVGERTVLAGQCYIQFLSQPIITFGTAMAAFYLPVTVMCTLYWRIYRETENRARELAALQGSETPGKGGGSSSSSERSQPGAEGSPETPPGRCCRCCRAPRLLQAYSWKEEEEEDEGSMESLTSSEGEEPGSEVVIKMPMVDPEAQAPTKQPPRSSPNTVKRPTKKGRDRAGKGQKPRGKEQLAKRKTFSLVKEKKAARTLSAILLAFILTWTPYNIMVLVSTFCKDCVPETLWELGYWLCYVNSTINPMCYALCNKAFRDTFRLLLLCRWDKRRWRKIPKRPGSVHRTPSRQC
# [10] = target: 5-hydroxytryptamine receptor 2A (Homo sapiens, UniProt P28223); format: functional, cell-based
# Chain of 5-hydroxytryptamine receptor 2A (P28223 whole entry): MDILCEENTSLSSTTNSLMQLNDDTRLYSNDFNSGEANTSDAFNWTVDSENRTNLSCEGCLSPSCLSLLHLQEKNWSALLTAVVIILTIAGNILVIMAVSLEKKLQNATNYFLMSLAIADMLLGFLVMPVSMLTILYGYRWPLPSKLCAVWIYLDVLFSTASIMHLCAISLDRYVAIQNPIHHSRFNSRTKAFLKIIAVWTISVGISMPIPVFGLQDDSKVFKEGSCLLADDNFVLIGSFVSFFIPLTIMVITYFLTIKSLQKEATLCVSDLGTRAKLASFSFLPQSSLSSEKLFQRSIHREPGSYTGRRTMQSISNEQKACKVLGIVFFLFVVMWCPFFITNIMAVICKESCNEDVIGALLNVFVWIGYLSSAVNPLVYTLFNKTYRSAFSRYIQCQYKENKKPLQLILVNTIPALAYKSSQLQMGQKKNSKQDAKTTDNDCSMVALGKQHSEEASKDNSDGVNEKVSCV
# [11] = target: Cannabinoid receptor 1 (Homo sapiens, UniProt P21554); format: functional, cell-based
# Chain of Cannabinoid receptor 1 (P21554 whole entry): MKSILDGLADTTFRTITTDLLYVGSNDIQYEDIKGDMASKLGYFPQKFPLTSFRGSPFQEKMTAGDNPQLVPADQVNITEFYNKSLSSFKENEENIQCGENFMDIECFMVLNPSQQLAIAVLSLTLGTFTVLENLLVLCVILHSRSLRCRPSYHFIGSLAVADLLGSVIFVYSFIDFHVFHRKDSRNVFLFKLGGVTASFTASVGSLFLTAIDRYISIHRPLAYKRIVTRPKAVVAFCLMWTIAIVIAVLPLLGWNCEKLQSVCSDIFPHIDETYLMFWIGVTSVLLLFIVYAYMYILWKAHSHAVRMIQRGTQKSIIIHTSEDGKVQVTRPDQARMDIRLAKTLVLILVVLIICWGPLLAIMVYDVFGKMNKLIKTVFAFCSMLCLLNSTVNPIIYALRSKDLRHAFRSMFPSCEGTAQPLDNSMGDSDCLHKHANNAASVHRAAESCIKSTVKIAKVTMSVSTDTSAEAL
# [12] = target: Mu-type opioid receptor (Homo sapiens, UniProt P35372)
# Chain of Mu-type opioid receptor (P35372 whole entry): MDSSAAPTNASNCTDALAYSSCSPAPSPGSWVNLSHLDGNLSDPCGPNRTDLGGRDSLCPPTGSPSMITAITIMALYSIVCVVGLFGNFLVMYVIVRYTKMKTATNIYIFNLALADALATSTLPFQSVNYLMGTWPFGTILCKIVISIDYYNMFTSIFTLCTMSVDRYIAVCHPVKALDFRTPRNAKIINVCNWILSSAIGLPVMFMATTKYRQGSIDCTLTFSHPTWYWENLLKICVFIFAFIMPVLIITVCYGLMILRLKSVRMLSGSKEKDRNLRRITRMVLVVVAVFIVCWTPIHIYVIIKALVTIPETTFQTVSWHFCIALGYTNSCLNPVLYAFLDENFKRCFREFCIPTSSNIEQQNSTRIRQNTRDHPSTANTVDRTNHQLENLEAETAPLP
# [13] = target: Prothrombin (Homo sapiens, UniProt P00734); format: functional
# [14] = target: T4, Alpha-1A adrenergic receptor (Homo sapiens, UniProt P35348); format: functional, cell-based
# T4 sequence (P35348 whole entry): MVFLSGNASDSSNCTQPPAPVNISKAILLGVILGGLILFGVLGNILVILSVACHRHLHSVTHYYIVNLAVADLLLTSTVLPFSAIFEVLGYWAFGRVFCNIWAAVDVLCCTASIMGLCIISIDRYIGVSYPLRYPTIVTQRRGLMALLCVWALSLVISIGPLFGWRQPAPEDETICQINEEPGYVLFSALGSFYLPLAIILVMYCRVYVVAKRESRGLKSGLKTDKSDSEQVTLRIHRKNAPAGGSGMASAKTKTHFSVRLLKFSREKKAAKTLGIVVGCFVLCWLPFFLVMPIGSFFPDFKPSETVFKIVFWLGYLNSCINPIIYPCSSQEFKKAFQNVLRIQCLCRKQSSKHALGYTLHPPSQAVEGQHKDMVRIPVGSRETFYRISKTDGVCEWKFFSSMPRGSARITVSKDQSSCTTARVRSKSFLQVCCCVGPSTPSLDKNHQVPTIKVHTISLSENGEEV
# Also: assay procedure not described here.
Compound,AC50 [1],AC50 [2],AC50 [3],AC50 [4],AC50 [5],AC50 [6],AC50 [7],AC50 [8],AC50 [9],AC50 [10],AC50 [11],AC50 [12],AC50 [13],AC50 [14]
CCCCN1C[C@H](O)[C@@H](O)[C@H](O)[C@H]1CO,> 30 µM,> 30 µM,> 30 µM,> 30 µM,> 30 µM,> 30 µM,> 30 µM,> 30 µM,> 30 µM,> 30 µM,,,,
Nc1nc(NC2CC2)c2ncn([C@H]3C=C[C@@H](CO)C3)c2n1 [ABACAVIR],> 30 µM,> 30 µM,10 µM,> 30 µM,> 30 µM,> 30 µM,> 30 µM,> 30 µM,> 30 µM,> 30 µM,> 30 µM,,,
CC(=O)NCCCS(=O)(=O)O [ACAMPROSATE],> 30 µM,> 30 µM,> 30 µM,> 30 µM,> 30 µM,> 30 µM,> 30 µM,> 30 µM,> 30 µM,> 30 µM,> 30 µM,,,
CN1C(=O)CCS(=O)(=O)C1c1ccc(Cl)cc1 (centres undefined) [CHLORMEZANONE],> 10 µM,> 10 µM,> 30 µM,> 10 µM,> 10 µM,> 10 µM,> 10 µM,> 10 µM,> 30 µM,> 10 µM,,,,
CN1C(C(=O)Nc2ccccn2)=C(O)c2sc(Cl)cc2S1(=O)=O [LORNOXICAM],> 10 µM,> 10 µM,> 30 µM,> 10 µM,> 10 µM,> 10 µM,> 30 µM,> 10 µM,> 10 µM,> 30 µM,> 30 µM,,,
CNC1Cc2ccccc2N(C)c2ccccc21 (centres undefined) [METAPRAMINE],3.2 µM,> 30 µM,> 30 µM,> 30 µM,,> 30 µM,> 30 µM,> 10 µM,> 30 µM,> 30 µM,> 30 µM,,,
CC1(C)NC(=O)N(c2ccc([N+](=O)[O-])c(C(F)(F)F)c2)C1=O [NILUTAMIDE],> 30 µM,> 30 µM,28 µM,> 30 µM,> 30 µM,> 30 µM,> 30 µM,> 30 µM,> 30 µM,> 30 µM,,> 30 µM,> 30 µM,> 30 µM
COc1ccc(CC(C)(C)NC[C@H](O)c2cc(O)cc3c2OCC(=O)N3)cc1 [OLODATEROL],10 µM,> 30 µM,21 µM,> 30 µM,,> 30 µM,11 µM,> 30 µM,> 30 µM,> 30 µM,> 30 µM,,,
c1cnc(N2CCN(Cc3ccc4c(c3)OCO4)CC2)nc1 [PIRIBEDIL],0.059 µM,> 30 µM,> 30 µM,> 30 µM,,> 30 µM,> 30 µM,> 30 µM,> 30 µM,> 30 µM,> 30 µM,,,
Cc1c(C(=O)NN2CCCCC2)nn(-c2ccc(Cl)cc2Cl)c1-c1ccc(Cl)cc1 [RIMONABANT],> 30 µM,21 µM,> 30 µM,> 30 µM,,> 30 µM,23 µM,> 30 µM,> 30 µM,> 30 µM,,,,
O=C(O[C@H]1C[C@H]2CC[C@@H](C1)[N+]21CCCC1)C(O)(c1ccccc1)c1ccccc1 [TROSPIUM],> 30 µM,> 30 µM,> 30 µM,> 30 µM,> 30 µM,> 30 µM,> 30 µM,> 30 µM,0.028 µM,> 30 µM,,,,
Cc1cn([C@H]2C[C@H](N=[N+]=[N-])[C@@H](CO)O2)c(=O)[nH]c1=O [ZIDOVUDINE],> 10 µM,> 10 µM,> 30 µM,> 10 µM,> 10 µM,> 10 µM,> 10 µM,> 10 µM,,,> 30 µM,> 30 µM,> 30 µM,> 30 µM

# The next lines start with results.
AC50 [1],AC50 [2],AC50 [3],AC50 [4],AC50 [5],AC50 [6],AC50 [7],AC50 [8],AC50 [9],AC50 [10],AC50 [11],Compound,AC50 [12],AC50 [13],AC50 [14]
6.7 µM,14 µM,> 30 µM,> 30 µM,,> 30 µM,> 30 µM,26 µM,0.129 µM,4.5 µM,> 30 µM,CN(C)CCC=C1c2ccccc2C(C)(C)c2ccccc21,,,
6.8 µM,> 30 µM,> 30 µM,> 30 µM,> 30 µM,> 30 µM,> 30 µM,> 30 µM,> 30 µM,> 30 µM,> 30 µM,COc1cc2nc(N(C)CCCNC(=O)C3CCCO3)nc(N)c2cc1OC (centres undefined) [ALFUZOSIN],,,
> 30 µM,> 30 µM,> 30 µM,> 30 µM,,> 30 µM,0.07 µM,> 30 µM,> 30 µM,> 30 µM,> 30 µM,CNC(=O)c1ccccc1Sc1ccc2c(/C=C/c3ccccn3)n[nH]c2c1 [AXITINIB],,,
> 10 µM,> 30 µM,15 µM,> 10 µM,,> 10 µM,18 µM,> 10 µM,> 30 µM,> 30 µM,> 30 µM,O=C1Nc2ccc(Cl)cc2[C@@](C#CC2CC2)(C(F)(F)F)O1 [EFAVIRENZ],,,
> 30 µM,> 30 µM,> 30 µM,> 30 µM,> 30 µM,> 30 µM,> 30 µM,> 30 µM,> 30 µM,> 30 µM,> 30 µM,Cc1nc([N+](=O)[O-])cn1-c1ccc([N+](=O)[O-])cc1 [NITREFAZOLE],,,
7.7 µM,> 30 µM,> 30 µM,> 30 µM,> 30 µM,> 30 µM,> 30 µM,> 30 µM,> 30 µM,> 30 µM,,COc1ccccc1OCC(O)CN1CCN(CC(=O)Nc2c(C)cccc2C)CC1 (centres undefined) [RANOLAZINE],,,
> 10 µM,> 10 µM,> 30 µM,> 10 µM,> 10 µM,> 10 µM,> 10 µM,> 10 µM,> 10 µM,> 10 µM,,NS(=O)(=O)Cc1noc2ccccc12 [ZONISAMIDE],,,
